This note sets out measurements from patent US20040147567A1, “Arginine derivatives” (priority 2001, published 2004).

As a reminder, the IC50 is the point on the concentration scale where inhibition reaches its midpoint. Higher therefore signals weaker potency in that assay.

This test has as its target T1, human MC4 receptor (Homo sapiens, UniProt P32245).
T1 construct: purchased Biolinks Co; host or cells: HEK-293 cell membranes
The experiment in a line: MC4 receptor binding assay ([125I]Nle4-D-Phe7-α-MSH displacement). The note with it: HEK-293 cell membranes expressing the human MC4 receptor; [125I]Nle4-D-Phe7-α-MSH 0.2 nM; 25° C., 120 minutes. The protocol: Experiment 1 [MC4 Receptor Binding Assay]
MC4 receptor binding assay was carried out according to the method described in Pharmacology & Toxicology, 79, 161-165, 1996. HEK-293 cell membranes expressing the human MC4 receptor were purchased from Biolinks Co. The cell membranes were homogenized in a 50 mM Tris hydrochloric acid buffer solution (pH 7.4) containing 2 mM ethylenediamine tetraacetic acid, 10 mM calcium chloride and 100 μM phenylmethanesulfonylfluoride. The homogenate was centrifuged at 48,000×g for 20 minutes at 4° C. The precipitate obtained by centrifugation was again homogenized in the same buffer solution, and the homogenate was centrifuged at 48,000×g for 20 minutes at 4° C. This procedure was repeated twice. The precipitate was suspended in 50 mM Tris hydrochloric acid buffer solution (pH 7.4) containing 2 mM ethylenediamine tetraacetic acid, 10 mM calcium chloride, 100 μM phenylmethanesulfonylfluoride and 0.1% bovine serum albumin to adjust to a protein concentration of 100 μg/ml to give a crude membrane preparation which was used for the binding assay. The crude membrane preparation (0.25 ml, 25 μg protein) was reacted with [^125I]Nle^4-D-Phe^7-α-MSH (final concentration; 0.2 nM) at 25° C. for 120 minutes. […] The radioactivity on the filter paper was measured in a gamma-counter. […] The IC50 value was calculated from the inhibition curve in the concentration of 10^−9-10^−5.

T1 sequence (P32245 whole entry): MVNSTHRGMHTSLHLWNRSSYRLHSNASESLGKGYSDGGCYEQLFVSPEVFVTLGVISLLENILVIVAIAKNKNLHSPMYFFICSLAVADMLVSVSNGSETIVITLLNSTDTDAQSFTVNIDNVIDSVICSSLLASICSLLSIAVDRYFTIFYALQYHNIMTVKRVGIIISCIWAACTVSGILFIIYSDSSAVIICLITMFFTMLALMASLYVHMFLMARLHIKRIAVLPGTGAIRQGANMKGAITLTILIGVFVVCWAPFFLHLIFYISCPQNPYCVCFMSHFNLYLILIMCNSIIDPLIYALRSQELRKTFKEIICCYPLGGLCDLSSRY

Regarding `CC(=O)N[C@H](Cc1cccc2ccccc12)C(=O)N[C@@H](CCCNC(=N)N)C(=O)N[C@H](Cc1ccc2ccccc2c1)C(N)=O` [Compound 224], the IC50 is 690 nM.
